Laboratory results: patent publication US12098217B2, “Fusion peptides as antimicrobial agents” (CENTRE NATIONAL DE LA RECHERCHE SCIENTIFIQUE, priority 2019, dated 2024)
pKd: −log10 of the molar value. Converted amounts (≈) assume the structure as drawn. Values belong to the compound of their own block, whether it stands above or below them. Square brackets hold non-standard residues; d marks the D form. Peptide text beside a SMILES is read from it. * marks the point of attachment. 5FAM = O=C1OC2(c3ccc(O)cc3Oc3cc(O)ccc32)c2ccc(C(=O)*)cc21; Cha = N[C@@H](CC1CCCCC1)C(=O)O

How the values were obtained:
[1] = system: E. coli ATCC 25922 (DSM 1103) strain; type: cell-based; conditions: ATCC 25922, 36 h
Procedure: (§1) E. coli strains were cultivated on either agar or liquid 1× Mueller Hinton broth unless specified. MIC assays were performed in duplicate in 96-well microtiter plates on the basis of the protocol recommended by the Clinical and Laboratory Standards Institute. Briefly, a mix of 5-6 fresh (less than 36 hours) colonies grown on MH agar plates were inoculated in 3 ml of MH broth and incubated for about 16 h at 37° C. under agitation. 30 μl of this saturated culture were inoculated in 3 ml of fresh medium and allowed to grow until OD600 nm of about 0.6-0.8. Dilution to an OD600 nm of 0.002 was made in MH broth. Within a time laps not exceeding 30 min, 50 μl of this cell suspension was added to 50 μl of MH broth (containing or not the peptide/antibiotic diluted in MH broth) in wells of a 96-well round bottom microwell plate (Greiner; final cell density about 2 to 5×10^5 cfu/ml). Plates were incubated at 37° C. for 18-24 h and final turbidity of each well was measured at 620 nm using a Multiskan FC microplate reader (Thermo Scientific). MIC was defined as the minimal antibiotic concentration that result in no increase of turbidity at that time. Each MIC determination was performed in duplicate and at least in two independent experiments. Plating of 75 μl of the content of the wells of interest on LB Agar plates was used to determine the MBC that is defined by a decrease of at least 99.9% of cell viability as compared to the number of viable cells in the inoculum (about 2 to 5×10^4 cfu).
The antimicrobial activities of these peptides have been tested against the E. coli ATCC 25922 (DSM 1103) strain in 1× Mueller-Hinton broth as mentioned above.
The antimicrobial activities of these peptides and controls have been tested against the E. coli ATCC 25922 (DSM 1103) strain in 1× Mueller-Hinton broth.

[2] = system: E. coli 70S ribosome (^Ec70S); assay: ITC, peptide interaction with E. coli 70S ribosome; type: binding
Procedure: E. coli MRE600 cells were grown at 37° C. in LB medium until OD^600=1. Cells were centrifuged at 4° C., and pellets were resuspended in buffer A (20 mM Tris HCl pH 7.5; 200 mM NH4Cl; 20 mM MgCl2; 0.1 mM EDTA; 6 mM β-mercaptoethanol) and lysed using a French press at 1.6 kbar. The crude lysate was centrifuged (18 200 rpm) for 30 mn at 4° C. The supernatant was further centrifuged (47000 rpm) at 4° C. for 4 hours and the pellet resuspended in 12.5 ml of buffer A. This solution was laid on a 30% sucrose cushion and centrifuged (34 000 rpm) for 19 hours at 4° C. The ribosome pellet was resuspended in 12.5 ml buffer B (20 mM Tris HCl pH 7.5; 50 mM NH4Cl; 10 mM MgCl2; 0.1 mM EDTA; 6 mM β-mercaptoethanol) and centrifuged again (18 200 rpm) for 1 hour at 4° C. The supernatant was concentrated on Centrikon 100K (Millipore) and washed extensively with ITC 70S buffer. Ribosome concentration was determined by UV absorption at 260 nm. Samples were snap frozen in liquid nitrogen and kept at −80° C.
(§2) ITC experiments were performed on a iTC200 (Microcal Malvern Panalytical) or PEAQ-ITC instrument (Microcal Malvern Panalytical). The E. coli SC were washed extensively with ITC buffer (R1 buffer: 10 mM Hepes pH 7.4, 0.15 M NaCl, 3 mM EDTA) on Centrikon 10K at 4° C. before ITC experiments. […] Similarly, E. coli 70S ribosome particles were also washed extensively with ITC 70S buffer (50 mM Tris HCl pH7.5, 30 mM KCl, 70 mM NH4Cl, 7 mM MgCl2, 1 mM DTT, 5% glycerol) on Centrikon 100K at 4° C. before ITC experiments. Peptides (100 to 400 μM) were titrated at 30° C. (303.15 K) in sequential injections (usually 2 μl each) into a SC (20 or 30 μM) or 70S (10 to 15 μM) solution. Data were corrected from control experiments in which peptides were injected in ITC buffer solution. Each titration was performed at least twice. Analyses of experimental data were performed with AFFINImeter software (https://www.affinimeter.com; S4S, Santiago de Compostela, Spain).
The lack of interaction with the ribosome of E. coli has been measured by ITC at 30° C.:
The interactions of these peptides with the E. coli SC (beta ring) and the ribosome were measured by ITC at […]: […]

[3] = target: T1, E. coli SC (^EcSC, beta ring, DnaN) (Escherichia coli, UniProt P0A988); assay: ITC, peptide interaction with E. coli sliding clamp; type: binding
T1 construct: inferred from the pET15b vector and the Ni-NTA/imidazole purification; made in house; host or cells: E. coli BL21 (DE3) pLys
T1 sequence (P0A988 whole entry): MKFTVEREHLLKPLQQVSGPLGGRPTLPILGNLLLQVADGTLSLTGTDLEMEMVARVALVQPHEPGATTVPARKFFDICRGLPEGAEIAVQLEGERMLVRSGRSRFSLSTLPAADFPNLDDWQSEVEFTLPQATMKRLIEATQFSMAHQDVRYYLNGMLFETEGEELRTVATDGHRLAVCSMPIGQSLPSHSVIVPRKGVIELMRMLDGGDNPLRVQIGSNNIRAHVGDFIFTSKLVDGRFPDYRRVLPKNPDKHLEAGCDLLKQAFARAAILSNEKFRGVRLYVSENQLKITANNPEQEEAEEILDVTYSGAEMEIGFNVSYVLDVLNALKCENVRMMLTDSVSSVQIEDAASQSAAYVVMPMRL
Procedure: The DnaN protein was expressed from plasmids pET15b, containing the dnaN gene from E. coli, transfected in BL21 (DE3) pLys E. coli strain. Cells were grown in LB at 37° C. to OD 0.5, then induced by IPTG (0.1 mM) at 28° C. overnight. DnaN protein was first enriched on a Ni-NTA column, eluted with an imidazole step (300 mM) and further purified on a Source Q column in buffer containing 20 mM Tris HCl pH 7.5, 0.5 mM EDTA and 10% glycerol, using a gradient from 0 to 0.5 M NaCl. After a final ultracentrifugation (45K, 1 h, 20° C.), soluble proteins were concentrated on a Centricon 30K (Millipore) in the same buffer and stored at 4° C. in 2 M ammonium sulfate.
as §2, with “[…] […]” for “Peptides (100 to 400 μM) were titrated at 30° C. (303.15 K) in sequential injections (usually 2 μl each) into a SC (20 or 30 μM) or 70S (10 to 15 μM) solution.”

E. coli D22 strain = assay: microbe, parasite or virus in culture; type: cell-based
From the text: E. coli strain D22 (F-, IpxC101, proA23, lac-28, tsx-81, trp-30, his-51, tufA1, rpsL173(strR), ampCp-1 was purchased at E. coli Genetic Stock Center (Yale University) and used in the determination of MIC and in the peptide penetration assays. E. coli ATCC23724 cells were used to infect D. melanogaster flies. 70S ribosomes were purified from the E. coli MRE600 strain (Accession AY140951) and BL21 (DE3) pLys strain was used for production of the DnaN protein.
as §1

[4] = ITC, 30° C., E. coli ribosome, FITC-Onc112 series
[5] = ITC 30° C. (303.15 K), Table 2A, ^EcSC, Ni = no specific interaction
[6] = ITC 30° C., Table 2A, ^EcSC, Ni = no specific interaction
[7] = ITC 30° C., Table 2B, ^Ec70S, Ni = no specific interaction
[8] = ITC 30° C., Table 2B, ^Ec70S, Ni = no specific interaction, FITC peptides (*) values not well defined

MIC [1]: 32 to 64 µM
Structure (SMILES): CC[C@H](C)[C@H](NC(=O)[C@@H](CCCNC(=N)N)NC(=O)[C@H](CCCNC(=N)N)NC(=O)[C@@H]1CCCN1C(=O)[C@@H]1CCCN1C(=O)[C@H](CCCNC(=N)N)NC(=O)[C@@H]1CCCN1C(=O)[C@H](CCCNC(=N)N)NC(=O)[C@@H]1CCCN1C(=O)[C@H](CC(C)C)NC(=O)[C@H](Cc1ccc(O)cc1)NC(=O)[C@@H]1CCCN1C(=O)[C@@H]1CCCN1C(=O)[C@H](CCCCN)NC(=O)[C@H](CC(=O)O)NC(=O)[C@@H](NC(=O)c1ccc2c(c1)C(=O)OC21c2ccc(O)cc2Oc2cc(O)ccc21)C(C)C)C(=O)N[C@@H](Cc1ccc(O)cc1)C(=O)N[C@@H](CC(N)=O)C(=O)N[C@H](CCCNC(=N)N)C(N)=O [CA3-124] (5FAM-VDKPPYLPRPRPPR[dR]IYN[dR]-NH2)
pKd [2, 4]: 5.11
ΔG (kcal/mol) [2, 4]: −7.1 (±0.4) kcal/mol
ΔH [2, 4]: -22.6 kcal/mol

MIC [1]: 16 µM (≈ 61.5 µg/mL)
Structure (SMILES): CC[C@H](C)[C@H](NC(=O)[C@@H](CCCNC(=N)N)NC(=O)[C@H](CCCNC(=N)N)NC(=O)[C@@H]1CCCN1C(=O)[C@@H]1CCCN1C(=O)[C@H](CCCNC(=N)N)NC(=O)[C@@H]1CCCN1C(=O)[C@H](CCCNC(=N)N)NC(=O)[C@@H]1CCCN1C(=O)[C@H](CC(C)C)NC(=O)[C@H](Cc1ccc(O)cc1)NC(=O)[C@@H]1CCCN1C(=O)[C@@H]1CCCN1C(=O)[C@H](CCCCN)NC(=O)[C@H](CC(=O)O)NC(=O)[C@@H](NC(=O)[C@H](CCCCN)NC(=O)c1ccc2c(c1)C(=O)OC21c2ccc(O)cc2Oc2cc(O)ccc21)C(C)C)C(=O)N[C@@H](Cc1ccc(O)cc1)C(=O)N[C@@H](CC(N)=O)C(=O)N[C@H](CCCNC(=N)N)C(=O)NCC(=O)N1CCC[C@H]1C(=O)N[C@@H](CCCNC(=N)N)C(=O)N[C@@H](CCC(N)=O)C(=O)N[C@@H](CC1CCCCC1)C(=O)N[C@@H](CC(=O)O)C(=O)N[C@@H](CC(C)C)C(=O)N[C@@H](Cc1ccccc1)C(=O)O [CM1-92] (5FAM-KVDKPPYLPRPRPPR[dR]IYN[dR]GPRQ[Cha]DLF-OH)
pKd [2, 4]: < 4.30

Structure (SMILES): CC[C@H](C)[C@H](NC(=O)[C@@H]1CCCN1C(=O)[C@H](CCCNC(=N)N)NC(=O)[C@@H]1CCCN1C(=O)[C@@H]1CCCN1C(=O)[C@@H](NC(=O)[C@@H]1CCCN1C(=O)[C@H](CCCNC(=N)N)NC(=O)[C@@H]1CCCN1C(=O)[C@H](CC(C)C)NC(=O)[C@H](Cc1ccc(O)cc1)NC(=O)[C@H](CO)NC(=O)CNC(=O)[C@H](CCCCN)NC(=O)[C@H](CC(=O)O)NC(=O)[C@@H](N)C(C)C)[C@@H](C)O)C(=O)N[C@@H](Cc1ccc(O)cc1)C(=O)N[C@@H](CC(N)=O)C(=O)N[C@@H](CCCNC(=N)N)C(=O)N[C@@H](CC(N)=O)C(=O)NCC(=O)N1CCC[C@H]1C(=O)N[C@@H](CCCNC(=N)N)C(=O)N[C@@H](CCC(N)=O)C(=O)N[C@@H](CC1CCCCC1)C(=O)N[C@@H](CC(=O)O)C(=O)N[C@@H](CC(C)C)C(=O)N[C@@H](Cc1ccccc1)C(=O)O [Peptide P116] (H-VDKGSYLPRPTPPRPIYNRNGPRQ[Cha]DLF-OH)
interaction with ^EcSC, in words ([3]; ITC 30° C.): as efficiently as P7 alone
ΔH [3, 5]: -13.9 kcal/mol
ΔG [3, 6]: -9.61 kcal/mol
−TΔS [3, 6]: 4.3 kcal/mol
interaction with ^Ec70S, in words ([2]; ITC 30° C.): efficiently interact
pKd [2, 7]: 7.43
ΔG [2, 8]: -10.3 kcal/mol
ΔH [2, 8]: -22.3 kcal/mol
−TΔS [2, 8]: 12 kcal/mol
affinity for the ribosome relative to affinity for SC ([2]; from Table 2, ^Ec70S versus ^EcSC): three times higher affinity
MBC (E. coli D22 strain; D22 strain): 8 µg/mL (≈ 2.42 µM)
MIC (μM) (E. coli D22 strain; D22 strain): 1.2 to 2.4 µM
MIC (μg/ml) (E. coli D22 strain; D22 strain): 4 to 8 µg/mL
antibacterial activity, in words (E. coli D22 strain; E. coli D22, microdilution broth assay): no increase in the activity

Structure (SMILES): CC[C@H](C)[C@H](NC(=O)[C@@H]1CCCN1C(=O)[C@H](CCCNC(=N)N)NC(=O)[C@@H]1CCCN1C(=O)[C@@H]1CCCN1C(=O)[C@@H](NC(=O)[C@@H]1CCCN1C(=O)[C@H](CCCNC(=N)N)NC(=O)[C@@H]1CCCN1C(=O)[C@H](CC(C)C)NC(=O)[C@H](Cc1ccc(O)cc1)NC(=O)[C@H](CO)NC(=O)CNC(=O)[C@H](CCCCN)NC(=O)[C@H](CC(=O)O)NC(=O)[C@@H](N)C(C)C)[C@@H](C)O)C(=O)N[C@@H](Cc1ccc(O)cc1)C(=O)N[C@@H](CC(N)=O)C(=O)N[C@@H](CCCNC(=N)N)C(=O)N[C@@H](CC(N)=O)C(=O)NCC(=O)N1CCC[C@H]1C(=O)N[C@@H](CCCNC(=N)N)C(=O)N[C@@H](CC1CCCCC1)C(=O)N[C@@H](Cc1ccccc1)C(=O)N[C@@H](CCC(N)=O)C(=O)N[C@@H](CC(C)C)C(=O)N[C@@H](CC(=O)O)C(=O)O [Peptide P188]
interaction with ^EcSC, in words ([3]; ITC 30° C.): fail to interact
ΔH (kcal/mole) [3, 5]: Ni
Kd (nM) [3, 6]: Ni
ΔG (kcal/mole) [3, 6]: Ni
−TΔS (kcal/mole) [3, 6]: Ni
pKd [2, 7]: 7.12
ΔG [2, 8]: -9.89 kcal/mol
ΔH [2, 8]: -15.4 kcal/mol
−TΔS [2, 8]: 5.5 kcal/mol
MIC (μM) (E. coli D22 strain; D22 strain): 1.2 to 2.4 µM
MIC (μg/ml) (E. coli D22 strain; D22 strain): 4 to 8 µg/mL
